Assay results reported in US5430023A, “Tripeptide antithrombotic agents” (Eli Lilly and Company, priority 1993, dated 1995).
Square brackets hold non-standard residues; d marks the D form. Peptide text beside a SMILES is read from it. * marks the point of attachment. dNMePhg = CN[C@@H](C(=O)O)c1ccccc1; dHpg = N[C@@H](C(=O)O)c1ccc(O)cc1; dChg = N[C@@H](C(=O)O)C1CCCCC1; dPhg = N[C@@H](C(=O)O)c1ccccc1; Boc = CC(C)(C)OC(=O)*

Legend:
Format in all cases: biochemical
bovine thrombin [1] = target: T1, bovine thrombin (Bos taurus, UniProt P00735); assay: Inhibition of thrombin amidase activity (chromogenic substrate), bovine thrombin; conditions: apparent equilibrium constant inhibitor-thrombin, mean over a range of concentrations
T1 construct: 25 μl of bovine thrombin solution (0.21 mg/ml of thrombostat powder); purchased thrombostat powder
Protocol: The data in the table were obtained in an assay in which thrombin hydrolyzes the chromogenic substrate, N-benzoyl-D-phenylalanyl-L-valyl-L-arginyl-p-nitroanilide.
The assay was carried out in 50 μl buffer (0.03M Tris, 0.15M NaCl, pH 7.4) with 25 μl of bovine thrombin solution (0.21 mg/ml of thrombostat powder in 0.06M Tris, 0.3M NaCl, pH 7.4) and 150 μl of an aqueous solution of the chromogenic substrate at a concentration of 0.25 mg/ml. Solutions of test compound (25 μl) at various concentrations were added. […] Standard curves were constructed by plotting free thrombin concentration against hydrolysis rate. […] The amount of free inhibitor in each assay was calculated by subtracting the number of moles of bound thrombin from the number of moles of added inhibitor (test compound).
Kass was calculated for a range of concentrations of compounds and the mean value is reported in units of liter per mole.

bovine thrombin [2] = target: T1, bovine thrombin; assay: Plasma coagulation assay: thrombin time
Protocol: (§1) The anticoagulant activity of the compounds of the invention has been determined in standard tests. The following Table 2 presents the data obtained with representative compounds of the invention in tests used to determine prothrombin time, thrombin time and activated partial thromboplastin time (APTT). The numerical values in the table are the concentrations of the test compounds (ng/ml) required to prolong coagulation by 2-fold in the three tests. The thrombin time evaluation was carried out in plasma and separately determined in a buffer system at pH 7.5.
(§2) The data presented in Table 2 were obtained using a CoaScreener instrument from Tecan, Inc. in the assay protocols listed below.
50 μl bovine thrombin (2 NIH

[3] = system: plasma coagulation (Actin, CaCl2); assay: Plasma coagulation assay: APTT (activated partial thromboplastin time)
Protocol: as §1, §2

bovine thrombin [4] = target: T1, bovine thrombin; assay: Thrombin time in buffer (fibrinogen instead of plasma); conditions: Buffer (pH 7.5)
Protocol: as §1, §2
In the Thrombin Time determined in pH 7.4 buffer fibrinogen was used instead of plasma.

[5] = system: plasma coagulation (thromboplastin); assay: Plasma coagulation assay: prothrombin time
Protocol: The numerical values in the table are the concentrations of the test compounds (ng/ml) required to prolong coagulation by 2-fold in the three tests. The thrombin time evaluation was carried out in plasma and separately determined in a buffer system at pH 7.5.
as §2
50 μl thromboplastin (Dade)

Row | Compound | Thrombin Amidase Kass × 10^6 (bovine thrombin [1]) | Thrombin Time: concentration required to prolong coagulation by 2fold (bovine thrombin [2]) [ng/mL] | APTT: concentration required to prolong coagulation by 2fold [3] [ng/mL] | Thrombin Time: concentration required to prolong coagulation by 2fold (bovine thrombin [4]) [ng/mL] | Prothrombin Time: concentration required to prolong coagulation by 2fold [5] [ng/mL]
1 | N^α -ethylcarbamate-1-amino-1-cyclohexane-carbonyl-L-prolyl-L-arginine Aldehyde (Hydrochloride) | 1.5 × 10^6 1/mole | – | – | – | –
2 | N=C(N)NCCC[C@@H](C=O)NC(=O)[C@@H]1CCCN1C(=O)[C@@H]1NCCc2ccccc21.O=S(=O)(O)O [D-1,2,3,4-Tetrahydroisoquinolin-1-carbonyl-L-Prolyl-L-Arginine Aldehyde Sulfate] | 113 × 10^6 1/mole | – | – | – | –
3 | CN[C@@H](C(=O)N1CCC[C@H]1C(=O)N[C@H](C=O)CCCNC(=N)N)c1ccccc1 [N^α -Methyl-D-phenylglycyl (sulfate), N-methyl-D-phenylglycyl-L-prolyl-L-arginine aldehyde] (H-[dNMePhg]-Pro-Arg-aldehyde) | 80 × 10^6 1/mole | 92 | > 909 | 67 | 899
4 | N=C(N)NCCC[C@@H](C=O)NC(=O)[C@@H]1CCCN1C(=O)[C@H]1CC2CCCCC2CN1.O=S(=O)(O)O (stereo partly drawn) [D-1,2,3,4,6,7,8-Perhydroisoquinolin-3-carbonyl-L-prolyl-L-arginal (sulfate)] | 25 × 10^6 1/mole | – | – | – | –
5 | CO[C@@H](C(=O)N1CCC[C@H]1C(=O)N[C@H](C=O)CCCNC(=N)N)c1ccccc1 [(R)-α-Methoxyphenylacetyl] | 4 × 10^6 1/mole | 139 | > 909 | 173 | –
6 | CC(C)(C)OC(=O)NC(C(=O)N1CCCC1C(=O)NC(C=O)CCCN=C(N)N)c1ccc(F)cc1 [Boc-D-Phg(4-Fluoro)] | 44 × 10^6 1/mole | – | – | – | –
7 | CC(C)(C)OC(=O)N[C@@H](C(=O)N1CCC[C@H]1C(=O)N[C@H](C=O)CCCNC(=N)N)C1CCCCC1 [Boc-D-cyclohexylglycyl] (Boc-[dChg]-Pro-Arg-aldehyde) | 120 × 10^6 1/mole | 79 | 748 | 60 | 522
8 | COc1ccc([C@@H](NC(=O)OC(C)(C)C)C(=O)N2CCC[C@H]2C(=O)N[C@H](C=O)CCCNC(=N)N)cc1 [Boc-D-(4-methoxy)phenylglycyl] | 75 × 10^6 1/mole | 80 | 640 | – | –
9 | COc1ccc([C@@H](NC(C)=O)C(=O)N2CCC[C@H]2C(=O)N[C@H](C=O)CCCNC(=N)N)cc1 [Acetyl-D-(4-methoxy)phenylglycyl] | 15 × 10^6 1/mole | 460 | 2600 | – | 900
10 | N=C(N)NCCC[C@@H](C=O)NC(=O)[C@@H]1CCCN1C(=O)[C@H](N)c1ccccc1 [D-Phenylglycyl] (H-[dPhg]-Pro-Arg-aldehyde) | 75 × 10^6 1/mole | 91 | – | – | –
11 | CC(C)(C)OC(=O)NC(C(=O)N1CCCC1C(=O)NC(C=O)CCCN=C(N)N)c1cccs1 [Boc-D-2-thienylglycyl] | 14 × 10^6 1/mole | – | – | – | –
12 | Cl.N=C(N)NCCC[C@@H](C=O)NC(=O)[C@@H]1CCCN1C(=O)[C@H]1Cc2ccccc2C(=O)N1 [D-1,2,3,4-tetrahydroisoquinolin-1-keto-3-carbonyl-L-prolyl-L-arginine aldehyde (hydrochloride)] | 6 × 10^6 1/mole | – | – | – | –
13 | CC(=O)O.CC(=O)O.CC(C)(C)OC(=O)N[C@@H](C(=O)N1CCC[C@H]1C(=O)N[C@H](C=O)CCCNC(=N)N)c1ccc2ccccc2c1 [Boc-D-2-naphthylglycyl, N-Boc-D-2-naphthylglycyl-Pro-Arg-H diacetate] | 22 × 10^6 1/mole | 230 | 1200 | 142 | 1200
14 | CC(C)(C)OC(=O)N[C@@H](C(=O)N1CCC[C@H]1C(=O)N[C@H](C=O)CCCNC(=N)N)c1ccccc1.CC(C)(C)OC(=O)N[C@@H](C(=O)N1CCC[C@H]1C(=O)N[C@H](C=O)CCCNC(=N)N)c1ccccc1.O=S(=O)(O)O [Boc-D-phenylglycyl (sulfate salt), N-Boc-D-Phenylglycyl-L-Prolyl-L-Arginine aldehyde (Boc-D-Phg-Pro-Arg-H) hemisulfate] (Boc-[dPhg]-Pro-Arg-aldehyde) | 107 × 10^6 1/mole | – | – | – | –
15 | CC[C@@H](C(=O)N1CCC[C@H]1C(=O)N[C@H](C=O)CCCNC(=N)N)c1ccccc1 [(R)-α-Ethylphenylacetyl] | 7 × 10^6 1/mole | 115 | – | – | –
16 | N^α -acetyl-1-aminocyclohexane-1-carbonyl-L-prolyl-L-arginine Aldehyde (Hydrochloride) | 0.2 × 10^6 1/mole | – | – | – | –
17 | COc1ccc2cc([C@@H](NC(=O)OC(C)(C)C)C(=O)N3CCC[C@H]3C(=O)N[C@H](C=O)CCCNC(=N)N)ccc2c1 [Boc-D-(6-methoxy)-2-naphthylglycyl] | 6 × 10^6 1/mole | 460 | 2239 | 466 | 35489
18 | CC(=O)O.CC(=O)O.CC(C)(C)OC(=O)N[C@@H](C(=O)N1CCC[C@H]1C(=O)N[C@H](C=O)CCCNC(=N)N)c1ccc(O)cc1 [Boc-D-(4-hydroxy)phenylglycyl, N-Boc-D-(4-hydroxyphenylglycyl)-Pro-Arg-H diacetate] (Boc-[dHpg]-Pro-Arg-aldehyde) | 115 × 10^6 1/mole | 182 | 1091 | – | 1636
19 | CC(C)(C)OC(=O)NC(Cc1ccccc1)C(=O)N1CCCC1C(=O)NC(C=O)CCCN=C(N)N [Boc-D-phenylalanyl, reference compound] | 21 × 10^6 1/mole | – | – | – | –
